Tests used:
[1] = test system: Arabidopsis; test: Anthocyanin quantification, Arabidopsis 96-well plate; assay type: in vivo, Arabidopsis thaliana; details: low phosphate, 50 μM, 7 days after germination, control = 1
Description: Col-0 ecotype Arabidopsis seeds were sown in 96-well plates containing 150 μl of low phosphate modMS liquid medium containing 1% of sucrose. Compounds was added in 50 μM concentration (1% DMSO). Eight plants per repeat were collected 7 days after germination and put into a fresh Eppendorf. Extraction and quantification of anthocyanin levels was carried out according to The Plant cell 2013, 25:1641-1656. Anthocyanin levels were quantified by measuring absorption at 530 and 657 nm using a spectrophotometer and normalized to fresh weight input, and expressed relative to the low phosphate control. For pot experiments, the same procedure was followed with one 4-week old plant per sample.

[2] = test system: Maize; test: Maize growth experiment in pots with mixture of unfertilized potting soil and sand (leaf 5); assay type: in vivo; details: maize, pots with unfertilized potting soil and sand, after 29 days; control 38.1
Description: For a subset of compounds, we performed a more extensive analysis on their root hair inducing effect in a dose-response experiment (Table 3). This confirms that the more simple structures 8.14 and 8.14.6 still retain the activity of compound 8. […] To validate this, we performed a maize growth experiment using compound 8 and the, based on the increase of total root hair length, stronger variant 8.14.6. The experiment was conducted in pots with a mixture of unfertilized potting soil and sand, and leaf 5 was measured after 29 days (Table 4).

[3] = test system: Soybean; test: Soybean pot experiment; assay type: in vivo, soybean cultivar Primus; details: low phosphate, 10 μM, 4 weeks
Description: All Arabidopsis plant experiments were performed using the Arabidopsis thaliana Columbia-0 background. The Arabidopsis pSPX1::GUS line is described in the Plant Journal 2008, 54: 965-975. For rice, the cultivar Nipponbare was used. For maize, the cultivars DKC 2931 and B104 were used for regular pot experiments and sand-based pot experiments, respectively. For soybean, the cultivar Primus was used. […] The medium was solidified due to the addition of 0.6% Gelrite, unless stated otherwise. […]
Regular Arabidopsis, soybean and maize pot experiments used an unfertilized potting soil, which was supplemented at the start of the experiment with 50 ml H2O containing 0.25 g/l NH4NO3 and 0.44 g/l (high phosphate) or no (maize and soybean) or 0.11 g/l KH2PO (Arabidopsis) for low phosphate conditions. […] Compound concentration was 10 μM, calculated based on the total water content after watering, and was added at the start of the experiment (Arabidopsis) or once a week (maize). […] All parameters in the sand experiment, except the rate of leaf 4 (measured the first 4 days after emergence), were measured 19 days after sowing. Measurements in the pot experiments with potting soil were done after 4 weeks of growth, except for leaf 5, which was measured at 26 days. […]

[4] = test system: Maize B104; test: Long-term maize pot experiment, B104 (PHENOVISION); assay type: in vivo, maize cultivar B104
Description: Regular Arabidopsis, soybean and maize pot experiments used an unfertilized potting soil, which was supplemented at the start of the experiment with 50 ml H2O containing 0.25 g/l NH4NO3 and 0.44 g/l (high phosphate) or no (maize and soybean) or 0.11 g/l KH2PO (Arabidopsis) for low phosphate conditions. For the sand-based maize pot experiment, sand was supplemented with 50 ml H2O containing 0.25 g/l NH4NO3 and 0.38 g/l (high phosphate) or 0.02 g/l (low phosphate) KH2PO4. Potassium was balanced via addition of KCl. Compound concentration was 10 μM, calculated based on the total water content after watering, and was added at the start of the experiment (Arabidopsis) or once a week (maize). Indexed chlorophyll contents were received via a SPAD 502 Plus Chlorophyll Meter. All parameters in the sand experiment, except the rate of leaf 4 (measured the first 4 days after emergence), were measured 19 days after sowing. Measurements in the pot experiments with potting soil were done after 4 weeks of growth, except for leaf 5, which was measured at 26 days. One long-term maize pot experiment was conducted with the DKC 2931 (2.5 months) and B104 (3 months) cultivars on the PHENOVISION phenotyping platform as described in Frontiers in Plant Science 2021, 12: 640914, except that an unfertilized potting soil was used and that plants were fertilized with a low-phosphate Hoagland solution. The 2.5× overconcentrated low-phosphate Hoagland solution contained 0.034 g/l KH2PO and 200 mL of this solution was applied twice a week. 1.4 mL of a 10 mM compound solution was added each two weeks to each pot, corresponding to 9.6 mg/g nutrients. 13 plants per condition were used. During the experiment, pictures were taken twice a week for each plants from 6 different angles and the top. Pictures were used to extract the plant height and to extract the projected plant area from each side and calculate an estimated plant volume over time.

CC1CN(CC(=O)c2c(N)n(C)c(=O)n(C)c2=O)c2ccccc2O1 (centres unmarked) [Compound 8, 6-amino-1,3-dimethyl-5-[2-(2-methyl-2,3-dihydro-1,4-benzoxazin-4-yl)acetyl]pyrimidine-2,4-dione] was tested, and the Relative anthocyanin level [1] was 0.6, the “Leaf 5” value [2] was 39.4 cm and the Biomass ([3]; control 4.1) was 4.4 g. The Plant height ([3]; control 50) was 55 cm, the Plant height ([4]; B104, day 15, control 230) was 220 mm and the Estimated volume ([4]; B104, day 15, control 311) was 292 cm^3. It also gave a Plant height ([4]; B104, day 19, control 246) of 239 mm, an Estimated volume ([4]; B104, day 19, control 465) of 441 cm^3 and a Plant height ([4]; B104, day 22, control 291) of 288 mm. The Estimated volume ([4]; B104, day 22, control 548) was 565 cm^3, the Plant height ([4]; B104, day 26, control 351) was 368 mm and the Estimated volume ([4]; B104, day 26, control 623) was 689 cm^3. The Plant height ([4]; B104, day 27, control 416) was 364 mm, the Estimated volume ([4]; B104, day 27, control 637) was 552 cm^3 and the Plant height ([4]; B104, day 29, control 412) was 411 mm. It also gave an Estimated volume ([4]; B104, day 29, control 788) of 877 cm^3, a Plant height ([4]; B104, day 33, control 424) of 428 mm and an Estimated volume ([4]; B104, day 33, control 1146) of 1368 cm^3. It also gave a Plant height ([4]; B104, day 36, control 472) of 485 mm, an Estimated volume ([4]; B104, day 36, control 1405) of 1735 cm^3 and a Plant height ([4]; B104, day 40, control 507) of 547 mm. The Estimated volume ([4]; B104, day 40, control 1673) was 2117 cm^3, the Plant height ([4]; B104, day 43, control 551) was 587 mm and the Estimated volume ([4]; B104, day 43, control 1795) was 2363 cm^3. For the same compound, the Plant height ([4]; B104, day 47, control 609) was 657 mm, the Estimated volume ([4]; B104, day 47, control 2268) was 2844 cm^3 and the Plant height ([4]; B104, day 50, control 633) was 692 mm. It also gave an Estimated volume ([4]; B104, day 50, control 2874) of 3518 cm^3, a Plant height ([4]; B104, day 54, control 544) of 564 mm and an Estimated volume ([4]; B104, day 54, control 3143) of 3857 cm^3. The Plant height ([4]; B104, day 57, control 572) was 569 mm, the Estimated volume ([4]; B104, day 57, control 3365) was 4216 cm^3 and the Plant height ([4]; B104, day 61, control 572) was 609 mm. The Estimated volume ([4]; B104, day 61, control 3936) was 5052 cm^3, the Plant height ([4]; B104, day 63, control 514) was 529 mm and the Estimated volume ([4]; B104, day 63, control 3808) was 4933 cm^3. It also gave a Plant height ([4]; B104, day 68, control 566) of 593 mm, an Estimated volume ([4]; B104, day 68, control 4585) of 5837 cm^3 and a Plant height ([4]; B104, day 71, control 611) of 629 mm. The Estimated volume ([4]; B104, day 71, control 4957) was 5962 cm^3, the Plant height ([4]; B104, day 75, control 569) was 627 mm and the Estimated volume ([4]; B104, day 75, control 5016) was 6099 cm^3. The Plant height ([4]; B104, day 78, control 590) was 662 mm, the Estimated volume ([4]; B104, day 78, control 5551) was 6540 cm^3 and the Plant height ([4]; B104, day 82, control 626) was 685 mm. The Estimated volume ([4]; B104, day 82, control 5788) was 6751 cm^3, the Plant height ([4]; B104, day 85, control 677) was 707 mm and the Estimated volume ([4]; B104, day 85, control 5957) was 6623 cm^3. The Plant height ([4]; B104, day 89, control 697) was 733 mm, the Estimated volume ([4]; B104, day 89, control 5717) was 6434 cm^3 and the “Average number of ears” value ([4]; Maize pot long term B104, 3 months, low phosphate, control 0.3) was 0.7. For the same compound, the Shoot weight ([4]; Maize pot long term B104, low phosphate, control 28) was 32 g and the “Leaf 6” value ([4]; Maize pot long term B104, low phosphate, control 48) was 50 cm.
